Values quoted from earlier work in article PMC12084609, “Structural insights into small-molecule agonist recognition and activation of complement receptor C3aR” (The EMBO Journal, 2025).

System: C3aR
Parameters: method as in Mathieu et al, 2005; Rodriguez et al, 2024
Details: blockade of calcium influx attributed to β-arrestin mediated internalization; ref Mathieu et al, 2005; Rodriguez et al, 2024; cited from earlier work

Structure (SMILES): NC(N)=NCCC[C@H](NC(=O)COCC(c1ccccc1)c1ccccc1)C(=O)O [SB290157]
- activity at C3aR: potent agonist
